The values that follow are results of earlier work, collected in PubChem BioAssay AID1259409 (Chemical Carcinogenesis Research Information System (CCRIS), 2018).

The data set has as its system rodent chemically induced tumor inhibition, incidence and multiplicity. Description: CCRIS tumor inhibitor studies. The note with it: Dose [Inhibitor]: 0, Route [Inhibitor]: ORAL, Promoter: NONE USED.

With `CC1=C(/C=C/C(C)=C/C=C/C(C)=C/C=C/C=C(C)/C=C/C=C(C)/C=C/C2=C(C)CCCC2(C)C)C(C)(C)CCC1`, the “tumour outcome (control, treated, inhibition, significance)” value is, setting by setting: (Carcinogen: N-ETHYL-N'-NITRO-N-NITROSOGUANIDINE, 4245-77-6, 0.005% PALM CAROTENE IN DRINKING WATER FOR 16 WK BEGINNING POST CARCINOGEN TREATMENT (STUDY DURATION: 20 WK), Species: MOUSE, Strain/Sex: C57BL/MALE, Target Tissue: Type of Lesion: DUODENUM: TUMOR, Dose [Carcinogen]: 100 MG/L IN DRINKING WATER FOR 4 WK) 18/27 (67%), 8/16 (50%), 25%, not significant; (Carcinogen: N-ETHYL-N'-NITRO-N-NITROSOGUANIDINE, 4245-77-6, 0.05% PALM CAROTENE IN DRINKING WATER FOR 16 WK BEGINNING POST CARCINOGEN TREATMENT (STUDY DURATION: 20 WK), Species: MOUSE, Strain/Sex: C57BL/MALE, Target Tissue: Type of Lesion: DUODENUM: TUMOR, Dose [Carcinogen]: 100 MG/L IN DRINKING WATER FOR 4 WK) 18/27 (67%), 11/28 (39%), 42%, p<0.05; (Carcinogen: N-METHYL-N'-NITRO-N-NITROSOGUANIDINE, 70-25-7, 0.4% IN DIET FOR 2 WK PRIOR TO FIRST CARCINOGEN DOSE FOLLOWED BY 0, 0.2% IN DIET FOR 25 WK (STUDY DURATION: 27 WK), 0.4% IN DIET FOR 2 WK PRIOR TO FIRST CARCINOGEN DOSE FOLLOWED BY 0, 0.2% IN DIET FOR 25 WK (STUDY DURATION: 27 WK), Species: RAT, Strain/Sex: WISTAR/MALE, Target Tissue: Type of Lesion: COLON: ADENOCARCINOMA, Dose [Carcinogen]: 0.15 ML OF A 13.4 MG/ML SOLUTION IN DISTILLED WATER 2/WK FOR 3 WK) 34/36 (94%), 34/35 (97%), -3%, not calculated; (Carcinogen: N-METHYL-N'-NITRO-N-NITROSOGUANIDINE, 70-25-7, 0.4% IN DIET FOR 2 WK PRIOR TO FIRST CARCINOGEN DOSE FOLLOWED BY 0, 0.2% IN DIET FOR 25 WK (STUDY DURATION: 27 WK), 0.4% IN DIET FOR 2 WK PRIOR TO FIRST CARCINOGEN DOSE FOLLOWED BY 0, 0.2% IN DIET FOR 25 WK (STUDY DURATION: 27 WK), Species: RAT, Strain/Sex: WISTAR/MALE, Target Tissue: Type of Lesion: COLON: ADENOMA, Dose [Carcinogen]: 0.15 ML OF A 13.4 MG/ML SOLUTION IN DISTILLED WATER 2/WK FOR 3 WK) 17/36 (47%), 24/35 (69%), -47%, not calculated; (Carcinogen: N-METHYL-N'-NITRO-N-NITROSOGUANIDINE, 70-25-7, 0.4% IN DIET FOR 2 WK PRIOR TO FIRST CARCINOGEN DOSE FOLLOWED BY 0, 0.2% IN DIET FOR 52 WK (STUDY DURATION: 54 WK), 0.4% IN DIET FOR 2 WK PRIOR TO FIRST CARCINOGEN DOSE FOLLOWED BY 0, 0.2% IN DIET FOR 52 WK (STUDY DURATION: 54 WK), Species: RAT, Strain/Sex: WISTAR/MALE, Target Tissue: Type of Lesion: GLANDULAR STOMACH: ADENOCARCINOMA, Dose [Carcinogen]: 80 UG/ML IN DRINKING WATER FOR 52 WK) 7/36 (19%), 4/35 (11%), 42%, not calculated; (Carcinogen: N-METHYL-N'-NITRO-N-NITROSOGUANIDINE, 70-25-7, 0.4% IN DIET FOR 2 WK PRIOR TO FIRST CARCINOGEN DOSE FOLLOWED BY 0, 0.2% IN DIET FOR 52 WK (STUDY DURATION: 54 WK), 0.4% IN DIET FOR 2 WK PRIOR TO FIRST CARCINOGEN DOSE FOLLOWED BY 0, 0.2% IN DIET FOR 52 WK (STUDY DURATION: 54 WK), Species: RAT, Strain/Sex: WISTAR/MALE, Target Tissue: Type of Lesion: SMALL INTESTINE: ADENOCARCINOMA, Dose [Carcinogen]: 80 UG/ML IN DRINKING WATER FOR 52 WK) 10/36 (28%), 17/35 (49%), -75%, p= 0.12. Further, the “tumour outcome (control, treated, inhibition, significance)” value reads like this: (Carcinogen: N-METHYL-N'-NITRO-N-NITROSOGUANIDINE, 70-25-7, 0.4% IN DIET FOR 2 WK PRIOR TO FIRST CARCINOGEN DOSE FOLLOWED BY 0, 0.2% IN DIET FOR 52 WK (STUDY DURATION: 54 WK), 0.4% IN DIET FOR 2 WK PRIOR TO FIRST CARCINOGEN DOSE FOLLOWED BY 0, 0.2% IN DIET FOR 52 WK (STUDY DURATION: 54 WK), Species: RAT, Strain/Sex: WISTAR/MALE, Target Tissue: Type of Lesion: SMALL INTESTINE: ADENOMA, Dose [Carcinogen]: 80 UG/ML IN DRINKING WATER FOR 52 WK) 1/36 (3%), 0/35 (0%), 100%, not calculated; (Carcinogen: N-METHYL-N'-NITRO-N-NITROSOGUANIDINE, 70-25-7, 0.4% IN DIET FOR 2 WK PRIOR TO FIRST CARCINOGEN DOSE FOLLOWED BY 0, 0.2% IN DIET FOR 52 WK (STUDY DURATION: 54 WK), 0.4% IN DIET FOR 2 WK PRIOR TO FIRST CARCINOGEN DOSE FOLLOWED BY 0, 0.2% IN DIET FOR 52 WK (STUDY DURATION: 54 WK), Species: RAT, Strain/Sex: WISTAR/MALE, Target Tissue: Type of Lesion: SMALL INTESTINE: ANGIOSARCOMA, Dose [Carcinogen]: 80 UG/ML IN DRINKING WATER FOR 52 WK) 3/36 (8%), 6/35 (17%), -113%, not calculated. Also, where the note is “Carcinogen: N-METHYL-N'-NITRO-N-NITROSOGUANIDINE, 70-25-7, 0.4% IN DIET FOR 2 WK PRIOR TO FIRST CARCINOGEN DOSE FOLLOWED BY 0, 0.2% IN DIET FOR 52 WK (STUDY DURATION: 54 WK), 0.4% IN DIET FOR 2 WK PRIOR TO FIRST CARCINOGEN DOSE FOLLOWED BY 0, 0.2% IN DIET FOR 52 WK (STUDY DURATION: 54 WK), Species: RAT, Strain/Sex: WISTAR/MALE, Target Tissue: Type of Lesion: GLANDULAR STOMACH: LEIOMYOSARCOMA, Dose [Carcinogen]: 80 UG/ML IN DRINKING WATER FOR 52 WK”, the outcome was 0/36 (0%), 2/35 (6%), -600%, not calculated.
